Measurements as given in patent US10858360B2, “Tricyclic gyrase inhibitors” (priority 2011, dated 2020).
In brackets after ≈: the same amount, converted by molar mass.

Columns and labels:
[1] = test system: S. aureus ATCC 13709; assay: MIC, S. aureus ATCC 13709 (Alamar Blue broth microdilution); type: cell-based; conditions: Alamar Blue read after overnight incubation at 35° C.; for MIC Sa: S. aureus; for MIC: Staphylococcus aureus, ATCC13709, S. aureus
[2] = test system: E. coli ATCC 25922; assay: MIC, E. coli ATCC 25922; type: cell-based; conditions: Alamar Blue read after overnight incubation at 35° C.; for MIC Ec: E. coli; for MIC: Escherichia coli, ATCC25922, E. coli

Row | Compound | MIC Sa [1] | MIC Ec [2] | MIC [1] | MIC [2]
1 | CNc1cc(F)cc2c1[nH]c1nc(Oc3ccc(C4CC4)nc3)nc(N3CC(N)C4(CC4)C3)c12 (stereo not drawn) [4.347] | ≤0.5 µg/mL | 1 µg/mL (≈ 2.18 µM) | – | –
2 | CNc1cc(F)cc2c1[nH]c1nc(Oc3cccnc3)nc(N3CC4CC(N)C4C3)c12 (stereo not drawn) [4.348] | ≤0.5 µg/mL | ≤0.5 µg/mL | – | –
3 | CNc1cc(F)cc2c1[nH]c1nc(Oc3ccc[n+]([O-])c3)nc(N3CC4C[C@@H](N)C4C3)c12 (stereo partly drawn) [4.349] | – | – | ≤ 0.5 µg/mL | 1 µg/mL (≈ 2.3 µM)
4 | CNc1cc(F)cc2c1[nH]c1nc(Oc3cncc(-c4ccco4)c3)nc(N3CC4CC(N)C4C3)c12 (stereo not drawn) [4.350] | ≤0.5 µg/mL | 4 µg/mL (≈ 8.24 µM) | – | –
5 | CNc1cc(F)cc2c1[nH]c1nc(Oc3cncc([S+](C)[O-])c3)nc(N3CC4C(N)C4C3)c12 (stereo not drawn) [4.351] | ≤0.5 µg/mL | 2 µg/mL (≈ 4.28 µM) | – | –
6 | CNc1cc(F)cc2c1[nH]c1nc(Oc3cncc([S+](C)[O-])c3)nc(N3CC(N)C4(CC4)C3)c12 (stereo not drawn) [4.352] | ≤0.5 µg/mL | 4 µg/mL (≈ 8.31 µM) | – | –
7 | CNc1cc(F)cc2c1[nH]c1nc(Oc3cncc([S+](C)[O-])c3)nc(N3CC4C[C@@H](N)C4C3)c12 (stereo partly drawn) [4.353] | – | – | ≤ 0.5 µg/mL | 2 µg/mL (≈ 4.15 µM)
8 | CNc1cc(F)cc2c1[nH]c1nc(Oc3cncc(SC)c3)nc(N3C[C@H](N)C4(CC4)C3)c12 [4.354] | – | – | ≤ 0.5 µg/mL | 1 µg/mL (≈ 2.15 µM)
9 | CNc1cc(F)cc2c1[nH]c1nc(Oc3cncc(SC)c3)nc(N3CC4C[C@@H](N)C4C3)c12 (stereo partly drawn) [4.355] | – | – | ≤ 0.5 µg/mL | ≤ 0.5 µg/mL
10 | CNc1cc(F)cc2c1[nH]c1nc(Oc3cnc4c(c3)C(=O)NC4)nc(N3C[C@H](N)C4(CC4)C3)c12 [4.356] | – | – | ≤ 0.5 µg/mL | 4 µg/mL (≈ 8.43 µM)
11 | CNc1cc(F)cc2c1[nH]c1nc(Oc3cnc4c(c3)C(=O)NC4)nc(N3CC4C[C@@H](N)C4C3)c12 (stereo partly drawn) [4.357] | – | – | ≤ 0.5 µg/mL | 4 µg/mL (≈ 8.43 µM)
12 | CNc1cc(F)cc2c1[nH]c1nc(Oc3ccc4c(c3)ncn4C)nc(N3CC4C[C@@H](N)C4C3)c12 (stereo partly drawn) [4.358] | – | – | ≤ 0.5 µg/mL | 4 µg/mL (≈ 8.47 µM)
13 | CNc1cc(F)cc2c1[nH]c1nc(Oc3cnc4c(c3)C(=O)N(C)C4)nc(N3CC4C[C@@H](N)C4C3)c12 (stereo partly drawn) [4.359] | – | – | ≤ 0.5 µg/mL | ≤ 0.5 µg/mL
14 | CNc1cc(F)cc2c1[nH]c1nc(Oc3cnc4c(c3)ncn4C3CC3)nc(N3CC(N)C4(CC4)C3)c12 (stereo not drawn) [4.362] | ≤0.5 µg/mL | 1 µg/mL (≈ 2 µM) | – | –
15 | CNc1cc(F)cc2c1[nH]c1nc(Oc3cnc4c(c3)ncn4C3CC3)nc(N3CC4C[C@@H](N)C4C3)c12 (stereo partly drawn) [4.363] | – | – | ≤ 0.5 µg/mL | 1 µg/mL (≈ 2 µM)
16 | CNc1cc(F)cc2c1[nH]c1nc(Oc3cnc4c(c3)ncn4C3CC3)nc(N3CC(N)C3)c12 [4.364] | ≤0.5 µg/mL | 4 µg/mL (≈ 8.71 µM) | – | –
17 | CNc1cc(F)cc2c1[nH]c1nc(Oc3ccc4cncnc4c3)nc(N3CC4[C@H](N)C[C@]4(C)C3)c12 (stereo partly drawn) [4.366] | – | – | ≤ 0.5 µg/mL | 1 µg/mL (≈ 2.06 µM)
18 | CNc1cc(F)cc2c1[nH]c1nc(Oc3cnc(CC(=O)OC)nc3)nc(N3CC4C[C@@H](N)C4C3)c12 (stereo partly drawn) [4.367] | – | – | ≤ 0.5 µg/mL | ≤ 0.5 µg/mL
19 | CNc1cc(F)cc2c1[nH]c1nc(Oc3cnc(CC(=O)OC)nc3)nc(N3C[C@H](N)C4(CC4)C3)c12 [4.368] | – | – | ≤ 0.5 µg/mL | ≤ 0.5 µg/mL
20 | CNc1cc(F)cc2c1[nH]c1nc(Oc3cnc(CC(=O)N4CCOCC4)nc3)nc(N3C[C@H](N)C4(CC4)C3)c12 [4.369] | – | – | ≤ 0.5 µg/mL | 1 µg/mL (≈ 1.83 µM)
21 | CNc1cc(F)cc2c1[nH]c1nc(Oc3cnc(CC(=O)N(C)OC)nc3)nc(N3C[C@H](N)C4(CC4)C3)c12 [4.370] | – | – | ≤ 0.5 µg/mL | 1 µg/mL (≈ 1.92 µM)
22 | CNc1cc(F)cc2c1[nH]c1nc(Oc3cnc(CC(=O)NOC)nc3)nc(N3CC(N)C4(CC4)C3)c12 (stereo not drawn) [4.371] | 1 µg/mL (≈ 1.97 µM) | 16 µg/mL (≈ 31.5 µM) | – | –
23 | CNc1cc(F)cc2c1[nH]c1nc(Oc3cnc(CC(=O)N4CCC(N)C4)nc3)nc(N3CC(N)C4(CC4)C3)c12 (stereo not drawn) [4.372] | 4 µg/mL (≈ 7.32 µM) | 16 µg/mL (≈ 29.3 µM) | – | –
24 | CNc1cc(F)cc2c1[nH]c1nc(Oc3cnc(CC(=O)N4CC(N(C)C)C4)nc3)nc(N3C[C@H](N)C4(CC4)C3)c12 [4.373] | – | – | 2 µg/mL (≈ 3.57 µM) | 8 µg/mL (≈ 14.3 µM)
25 | CNc1cc(F)cc2c1[nH]c1nc(Oc3cnc(C(N)=O)nc3)nc(N3C[C@H]4C[C@@H](N)[C@H]4C3)c12 [4.374] | – | – | ≤ 0.5 µg/mL | 4 µg/mL (≈ 8.63 µM)
26 | CNc1cc(F)cc2c1[nH]c1nc(Oc3cnc(C(N)=O)nc3)nc(N3C[C@H](N)C4(CC4)C3)c12 [4.375] | – | – | ≤ 0.5 µg/mL | 4 µg/mL (≈ 8.63 µM)

Row | Compound | MIC Sa [1] | MIC Ec [2] | MIC [1] | MIC [2]
27 | CNc1cc(F)cc2c1[nH]c1nc(Oc3ccc4nc5n(c(=O)c4c3)CCC5)nc(N3CC4C[C@@H](N)C4C3)c12 (stereo partly drawn) [4.376] | – | – | > 16 µg/mL | > 16 µg/mL
28 | CNc1cc(F)cc2c1[nH]c1nc(Oc3ccc4nc5n(c(=O)c4c3)CCC5)nc(N3CC4(CCC4N)C3)c12 (stereo not drawn) [4.377] | 4 µg/mL (≈ 7.6 µM) | 16 µg/mL (≈ 30.4 µM) | – | –
29 | CNc1cc(F)cc2c1[nH]c1nc(Oc3cnc(Cl)nc3)nc(N3CC4CC(N)C4C3)c12 (stereo not drawn) [4.378] | ≤0.5 µg/mL | ≤0.5 µg/mL | – | –
30 | CNc1cc(F)cc2c1[nH]c1nc(Oc3cnc(Cl)nc3)nc(N3CC4C(N)CC4(C)C3)c12 (stereo not drawn) [4.379] | ≤0.5 µg/mL | ≤0.5 µg/mL | – | –
31 | CNc1cc(F)cc2c1[nH]c1nc(Oc3ccc4c(c3)C(=O)NC43CC3)nc(N3CC4(CCC4N)C3)c12 (stereo not drawn) [4.380] | 4 µg/mL (≈ 8.01 µM) | 16 µg/mL (≈ 32 µM) | – | –
32 | CNc1cc(F)cc2c1[nH]c1nc(Oc3ccc4c(c3)C(=O)NC43CC3)nc(N3CC4CC(N)C4C3)c12 (stereo not drawn) [4.381] | 4 µg/mL (≈ 8.01 µM) | 16 µg/mL (≈ 32 µM) | – | –
33 | CNc1cc(F)cc2c1[nH]c1nc(Oc3cc(O)c4c(C)cc(=O)oc4c3)nc(N3CC4CC(N)C4C3)c12 (stereo not drawn) [4.382] | 1 µg/mL (≈ 1.94 µM) | 16 µg/mL (≈ 31 µM) | – | –
34 | CNc1cc(F)cc2c1[nH]c1nc(Oc3cc(O)cc4oc(=O)cc(C)c34)nc(N3CC4CC(N)C4C3)c12 (stereo not drawn) [4.383] | 4 µg/mL (≈ 7.74 µM) | >16 µg/mL | – | –
35 | CCNC(=O)c1cncc(Oc2nc(NCC)c3c(n2)[nH]c2c(NC)cc(F)cc23)c1 [4.384] | 1 µg/mL (≈ 2.36 µM) | >16 µg/mL | – | –
36 | CNc1cc(F)cc2c1[nH]c1nc(Oc3cnc(S(C)(=O)=O)nc3)nc(N3CC4C(N)CC4(C)C3)c12 (stereo not drawn) [4.385] | ≤0.5 µg/mL | ≤0.5 µg/mL | – | –
37 | CNc1cc(F)cc2c1[nH]c1nc(Oc3cnc(CO)nc3)nc(N3CC4CC(N)C4C3)c12 (stereo not drawn) [4.386] | – | – | ≤ 0.5 µg/mL | ≤ 0.5 µg/mL
38 | CNc1cc(F)cc2c1[nH]c1nc(Oc3cnc(CO)nc3)nc(N3CC(N)C4(CC4)C3)c12 (stereo not drawn) [4.387] | ≤0.5 µg/mL | ≤0.5 µg/mL | – | –
39 | CNc1cc(F)cc2c1[nH]c1nc(Oc3cnc(CO)nc3)nc(N3CC4(CC[C@H]4N)C3)c12 [4.388] | – | – | ≤ 0.5 µg/mL | ≤ 0.5 µg/mL
40 | CNc1cc(F)cc2c1[nH]c1nc(Oc3cnc(CO)nc3)nc(N3CC4C(N)CC4(C)C3)c12 (stereo not drawn) [4.389] | ≤0.5 µg/mL | ≤0.5 µg/mL | – | –
41 | CNc1cc(F)cc2c1[nH]c1nc(Oc3cnc(CO)nc3)nc(N3CC4CC3C[C@@H]4N)c12 (stereo partly drawn) [4.390] | – | – | ≤ 0.5 µg/mL | ≤ 0.5 µg/mL
42 | CNc1cc(F)cc2c1[nH]c1nc(Oc3cnc(CO)nc3)nc(N3C[C@@H]4C[C@H]3C[C@@H]4N)c12 [4.391] | – | – | ≤ 0.5 µg/mL | ≤ 0.5 µg/mL
43 | CNc1cc(F)cc2c1[nH]c1nc(Oc3ccc(CO)nc3)nc(N3CC4CC3C[C@@H]4N)c12 (stereo partly drawn) [4.392] | – | – | 16 µg/mL (≈ 35.6 µM) | > 16 µg/mL
44 | CNc1cc(F)cc2c1[nH]c1nc(Oc3cnc(CN)nc3)nc(N3CC4CC3CC4N)c12 (stereo not drawn) [4.393] | ≤0.5 µg/mL | 1 µg/mL (≈ 2.22 µM) | – | –
45 | CNc1cc(F)cc2c1[nH]c1nc(Oc3cnc(CN)nc3)nc(N3CC4CC(N)C4C3)c12 (stereo not drawn) [4.394] | ≤0.5 µg/mL | ≤0.5 µg/mL | – | –
46 | CNc1cc(F)cc2c1[nH]c1nc(Oc3cnc4c(c3)C(=O)N(C)C4C)nc(N3CC4CC(N)C4C3)c12 (stereo not drawn) [4.397] | ≤0.5 µg/mL | ≤0.5 µg/mL | – | –
47 | CNc1cc(F)cc2c1[nH]c1nc(Oc3cnc4c(c3)C(=O)N(C)C4C)nc(N3CC4CC3C[C@@H]4N)c12 (stereo partly drawn) [4.398] | – | – | ≤ 0.5 µg/mL | ≤ 0.5 µg/mL
48 | CNc1cc(F)cc2c1[nH]c1nc(Oc3cnc(-c4nccn4C)nc3)nc(N3C[C@H](N)C4(CC4)C3)c12 [4.399] | – | – | ≤ 0.5 µg/mL | 2 µg/mL (≈ 4 µM)
49 | CCOC(=O)c1ncc(Oc2nc(N3CC4CC3C[C@@H]4N)c3c(n2)[nH]c2c(NC)cc(F)cc23)cn1 (stereo partly drawn) [4.400] | – | – | ≤ 0.5 µg/mL | ≤ 0.5 µg/mL
50 | CCOC(=O)c1ncc(Oc2nc(N3CC4C[C@@H](N)C4C3)c3c(n2)[nH]c2c(NC)cc(F)cc23)cn1 (stereo partly drawn) [4.401] | – | – | ≤ 0.5 µg/mL | ≤ 0.5 µg/mL
51 | CNc1cc(F)cc2c1[nH]c1nc(Oc3cnc(NCC4CCCO4)nc3)nc(N3C[C@H](N)C4(CC4)C3)c12 (stereo partly drawn) [4.406] | – | – | ≤ 0.5 µg/mL | 1 µg/mL (≈ 1.92 µM)
